Results published in US6566580B1, “Neurological disease model” (priority 1996, dated 2003).
Where “and” joins values, the source holds several entries; their conditions need not be identical. Equal values may be shown once.

Assays:
mGlu7 = mGlu7 (Rattus norvegicus, UniProt P35400); settings: high concentrations of L-AP4, e.g. 1 mM, recombinant systems; cited from earlier work
[1] = system: synaptic transmission in the Schaffer collateral-commissural pathway; assay: L-AP4 depression of synaptic transmission, field EPSP recordings in hippocampal CA1 slices; type: cell-based, mice; settings: L-AP4 1 mM
Description: To investigate the possible functions of mGlu7 electrophysiological experiments are performed in the CA1 region of the hippocampus, a region rich in mGlu7. […] L-AP4 (1 mM) is therefore applied to wild-type and mGlu7^−/− mice. […] However, all three patterns are seen in both wild-type and mutant mice. On average there is no significance difference in the actions of L-AP4 between groups; the peak L-AP4 induced depressions for wild-type and mutant mice are 40±10% (n=15) and 33±10% (n=14), respectively (P>0.05). Furthermore, no statistically significant differences are seen in intrinsic or synaptic properties between wild-type and mutant mice. Also, paired-pulse facilitation is similar between both groups. Thus, the facilitation ratio obtained, using an interpulse interval of 50 ms, is 1.49±0.03 and 1.45±0.04 for wild-type (n=9) and mutant (n=9) mice, respectively (P>0.05).
Since certain members of the mGlu family have been implicated in the generation of LTP in area CA1, the ability of wild-type and mutant mice to support this form of synaptic plasticity is compared as follows. […]
There are no apparent differences in low frequency synaptic transmission between the two groups of mice. […] Statistical significance is determined using a repeated measures ANOVA test and unpaired Students t-tests. […]

[2] = system: synaptic transmission in the Schaffer collateral-commissural pathway; settings: 1 mM L-AP4, Schaffer collateral-commissural pathway, literature; cited from earlier work
[3] = system: mice (mGluR7 -/-, +/-, +/+); assay: Pentylenetetrazol (PTZ)-induced seizures in mGluR7 knockout, heterozygote and wild-type mice; type: in vivo; settings: PTZ 40 mg/kg i.p.
Description: Intraperitoneal (i.p.) injection of a normally subconvulsive dose of PTZ (40 mg/kg) induced seizures in 9 out of 9 homozygous mGluR7 knockout mice (age 9 months) as shown in the Table below.
This sensitivity to a subconvulsive dose of PTZ is not yet evident at age 6 weeks but clearly evident at age 10 weeks in mGluR7 homozygous but not in heterozygous littermates as shown in the table below.

mice (mGluR7 -/-, +/-) = assay: EEG recording with surface electrodes before and after PTZ injection; type: in vivo; settings: PTZ 40 mg/kg
Description: In addition, two mGluR7−/− and two mGluR7+/− mice were equipped with surface electrodes to record EEGs before and after injection of 40 mg/kg PTZ.

Chain of mGlu7 (P35400 35-915): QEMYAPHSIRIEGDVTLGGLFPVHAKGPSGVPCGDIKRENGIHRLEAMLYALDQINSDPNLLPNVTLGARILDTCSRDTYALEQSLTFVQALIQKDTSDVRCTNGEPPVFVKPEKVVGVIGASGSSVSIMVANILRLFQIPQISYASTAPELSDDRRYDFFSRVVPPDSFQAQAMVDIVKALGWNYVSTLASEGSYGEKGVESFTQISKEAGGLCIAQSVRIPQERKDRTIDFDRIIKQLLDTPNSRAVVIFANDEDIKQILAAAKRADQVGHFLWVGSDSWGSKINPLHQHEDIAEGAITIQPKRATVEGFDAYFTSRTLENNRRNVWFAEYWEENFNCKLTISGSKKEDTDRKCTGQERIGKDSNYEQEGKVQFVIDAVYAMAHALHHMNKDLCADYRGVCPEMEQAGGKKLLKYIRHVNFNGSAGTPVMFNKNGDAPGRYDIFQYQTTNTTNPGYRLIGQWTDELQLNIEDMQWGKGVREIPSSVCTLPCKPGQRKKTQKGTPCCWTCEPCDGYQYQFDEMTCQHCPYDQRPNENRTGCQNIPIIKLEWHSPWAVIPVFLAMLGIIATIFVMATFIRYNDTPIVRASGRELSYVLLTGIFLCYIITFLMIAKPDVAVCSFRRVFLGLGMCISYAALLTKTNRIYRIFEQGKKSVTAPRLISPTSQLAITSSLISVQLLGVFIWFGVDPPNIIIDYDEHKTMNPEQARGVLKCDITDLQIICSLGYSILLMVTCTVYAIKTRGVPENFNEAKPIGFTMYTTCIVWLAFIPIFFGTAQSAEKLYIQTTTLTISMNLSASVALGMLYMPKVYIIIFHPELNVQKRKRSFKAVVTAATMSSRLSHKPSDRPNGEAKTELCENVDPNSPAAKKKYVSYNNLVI

| Structure (SMILES) | activation of mGlu7 (mGlu7) | peak L-AP4 induced depression ([1]; mutant (mGlu7 -/-) mice, n=14) | peak L-AP4 induced depression ([1]; wild-type mice, n=15) | effect on synaptic transmission [2] | mice with induced seizures ([3]; homozygous mGluR7 knockout mice, age 9 months) | Clonic activity ([3]; mGluR7 +/- heterozygote mice, per animal) | mice with clonic seizures ([3]; mGluR7+/- mice) | Clonic activity ([3]; mGluR7 -/- mice, age 6 weeks, per animal) | Clonic activity ([3]; mGluR7 -/- mice, age 10 weeks, per animal) | Clonic activity ([3]; mGluR7 -/- mice, per animal) | Exitus ([3]; mGluR7 -/- mice, per animal) | Tonic activity ([3]; mGluR7 -/- mice, per animal) | mice with induced seizures ([3]; wild type mice (mGluR7+/+)) | seizures following injection ([3]; wild type non-transgenic mice tested in parallel with the 6 and 10 week experiments) | EEG after PTZ injection (mice (mGluR7 -/-, +/-); homozygous mGluR7 knockout mice) | EEG after PTZ injection (mice (mGluR7 -/-, +/-); mGluR7+/- mice) |
| --- | --- | --- | --- | --- | --- | --- | --- | --- | --- | --- | --- | --- | --- | --- | --- | --- |
| N[C@@H](CCP(=O)(O)O)C(=O)O [L-AP4, (S)-2-amino-4-phosphonobutanoate] | can activate mGlu7 | 33±10% | 40±10% | can depress synaptic transmission |  |  |  |  |  |  |  |  |  |  |  |  |
| C1CCc2nnnn2CC1 [PTZ, Pentylenetetrazol] |  |  |  |  | 9 out of 9 | 3′ | 1 out of 9 | 6′ | 2′ (2×) and 4′ (4×) | 2′ and 15′ | 4′ (2×) and 12′ and 11′ and 6′ | 3′ (2×) and 12′ and 2′ and 4′ and 6′ | None of 9 | no seizures | typical signals reminiscent of seizure activity | no such activity developed |
